Reference: paper PMC6958387, “Biological Evaluation of Arylsemicarbazone Derivatives as Potential Anticancer Agents” (Pharmaceuticals, 2019)

Columns and labels:
HEp-2 = test: MTT cytotoxicity, 72 h; format: cell-based, human; settings: Homo sapiens, HEp-2, 72 h of incubation
Description: (§1) The cytotoxicity assessment was performed against three human cancer cell lines in suspension (K562, HL-60 and MOLT-4) and four adhered (HEp-2, NCI-H292, HT-29 and MCF-7).
(§2) The cells were obtained from the Cell Bank of Rio de Janeiro and maintained in the Laboratory of Cell Culture of the Department of Antibiotics of the Federal University of Pernambuco. The lines K562 (myeloblastic leukaemia), HL-60 (promyelocytic leukemia) and MOLT-4 (lymphoblastic leukemia) were cultured in RPMI 1640 medium and the lines HEp-2 (larynx carcinoma), NCI-H292 (lung carcinoma), HT-29 (colon adenocarcinoma) and MCF-7 (breast adenocarcinoma) were cultured in DMEM medium, supplemented with 10% fetal bovine serum, 2 mM glutamine, 100 U/mL penicillin and 100 μg/mL streptomycin (Gibco™ Life Technologies), at 37 °C and 5% CO2.
(§3) The evaluation of the cytotoxicity of the compounds was performed by the method of 3-(4,5-dimethyl-2-thiazolyl)-2,5-diphenyl-2H-tetrazolium bromide (MTT) (Sigma Aldrich Co., St. Louis, MO, USA). To perform the assay the cells were seeded in 96-well plates at the following concentrations: HL-60 and K562 (0.3 × 10^6 cells/mL); MOLT-4 and PBMC (10^6 cells/mL); NCI-H292, HT-29, HEp-2 e MCF-7 (10^5 cells/mL). Briefly, the compounds previously dissolved in DMSO (dimethylsulfoxide, Vetec, São Paulo, Brazil), were diluted in medium and added to each well at the desired concentrations. For the calculation of the concentration that inhibits 50% of cell growth (IC50) the compounds were serially diluted to obtain the final concentrations between 0.19–25 μg/mL. Doxorubicin was used as the standard in the concentration range between (0.078–10 μg/mL). After 72 h of contact of the cells with the compounds, it was added to each well 25 μL of MTT solution (5 mg/mL). Plates were left for another 3 h in incubator at 37 °C and at the end of that period the supernatant was aspirated. To perform the reading, 100 μL of DMSO was added in each well for the dissolution of the formazan crystals. The amount of formazan was measured by reading the plate at 560 nm absorbance. The IC50 was calculated from the nonlinear regression in the Prisma 7.0 software (GraphPad, San Diego, CA, USA). Each sample was tested in triplicate in three independent experiments.

HL-60 = test: MTT cytotoxicity, 72 h; format: cell-based, human; settings: Homo sapiens, HL-60; MTT, 72 h of incubation
Description: as §1, §2, §3

HT-29 = test: MTT cytotoxicity, 72 h; format: cell-based, human; settings: Homo sapiens, HT-29, 72 h of incubation
Description: as §1, §2, §3

K562 = test: MTT cytotoxicity, 72 h; format: cell-based, human; settings: Homo sapiens, K562, 72 h of incubation
Description: as §1, §2, §3

MCF-7 = test: MTT cytotoxicity, 72 h; format: cell-based, human; settings: Homo sapiens, MCF7, 72 h of incubation
Description: as §1, §2, §3

MOLT-4 = test: MTT cytotoxicity, 72 h; format: cell-based, human; settings: Homo sapiens, MOLT-4, 72 h of incubation
Description: as §1, §2, §3

NCI-H292 = test: MTT cytotoxicity, 72 h; format: cell-based, human; settings: Homo sapiens, NCI-H292, 72 h of incubation
Description: as §1, §2, §3

[1] = test system: Peripheral Blood Mononuclear Cells (PBMCs); test: MTT cytotoxicity in normal cells, 72 h; format: cell-based, human; settings: Homo sapiens, PBMC, 72 h of incubation
Description: In order to evaluate the cytotoxic potential in normal cells, all the derivatives were tested against Peripheral Blood Mononuclear Cells (PBMCs) and the most promising compounds were again compounds 3c and 4a, which offered more selectivity against the cancer cells.
Mononuclear cells were obtained from the peripheral blood of healthy volunteers by heparin tube collection and isolated by Ficoll-Histopaque gradient centrifugation. After centrifugation, the cells were harvested, washed and resuspended in RPMI 1640 medium supplemented with 20% fetal bovine serum, 2 mM glutamine, 100 U/mL penicillin and 100 μg/mL streptomycin (Gibco™ Life Technologies, Waltham, MA, USA). The phytohemagglutinin mitogen 2% was also added into the culture medium. After that, using the neubauer chamber, the cells were counted and plated in a 96-well plate at a concentration of 10^6 cells/mL and then were maintained for overnight under incubation at 37 °C and 5% CO2 [65].
as §3

[2] = test system: K562, HL-60, MOLT-4, HEp-2, NCI-H292, HT-29 and MCF-7 tumor cell lines; test: Cytotoxic screening against the panel of tumor cell lines (MTT); format: cell-based, human; settings: result in words
Description: as §1, §2
as §3, with “Plates were left for another 3 h in incubator at 37 °C and at the end of that period the supernatant was aspirated.” left out, “Each sample was tested in triplicate in three independent experiments.” left out

HL-60 cells [3] = test: Mitochondrial transmembrane potential (rhodamine 123), flow cytometry; format: cell-based, human; settings: 0.11 μM, 72 h
Description: In this sense, in order to evaluate if compounds 3c and 4a induce apoptosis by alterating the mitochondria transmembrane potential, this assay was performed by flow cytometry using the fluorochrome rhodamine 123, because this is able to accumulate in cells with unchanged mitochondrial transmembrane potential.
(§4) HL-60 cells (3 × 10^5) were plated in 24-well plates and treated with the compounds 3c (13 and 26 μM) and 4a (11 and 22 μM) for 72 h at 37 °C with 5% CO2. In all trials, doxorubicin was used as a positive control. After the incubation period, an aliquot of 500 μL of treated and untreated cells suspension was transferred to an Eppendorf tube and centrifuged to remove the supernatant and continue the protocol of the test. In the cell viability and annexin V assays, kits were used, ViaCount kit and guava nexin kit (Guava Technologies), respectively. The protocols performed in these tests followed the manufacturer’s instructions. For to analyze mitochondrial depolarization, rhodamine 123 fluorescent dye was used. In the assay for cell cycle analysis and DNA fragmentation propidium iodide was used. The experiments were performed on Guava EasyCyte HT (Merck-Millipore) flow cytometer, acquiring 5000 events. The data were analyzed in Guava-Soft™ software version 2.7. Three independent experiments were performed in triplicate.

HL-60 cells [4] = test: Annexin V-FITC/7-AAD test, flow cytometry; format: cell-based, human; settings: 0.11 μM, 72 h
Description: Aiming to better study the mechanism of induction of death involved in HL-60 cells after treatment with compounds 3c and 4a, a flow cytometric test was performed after double staining with annexin V-FITC/7-AAD. This assay is based on the ability of annexin V to bind with high affinity to phosphatidylserine which is translocated to the outer membrane of apoptotic cells and the 7-AAD dye binds to the DNA of cells with loss of membrane integrity. Thus, in this test it is possible to identify four distinct populations: viable cells [Annexin V(−) and 7-AAD(−)], initial apoptotic cells [Annexin V(+) and 7-AAD(−)], late apoptotic cells [Annexin V(+) and 7-AAD(+)] and dead cells [Annexin V(−) and 7-AAD (+)] [59].
as §4

Molecule `NC(=O)N/N=C/c1ccco1` [Compound 3l, 2-Furfuraldehyde Semicarbazone] has an IC50 (HEp-2) of over 100 µM, an IC50 (HL-60) of over 100 µM and an IC50 (HT-29) of over 100 µM. It also gave an IC50 (K562) of over 100 µM, an IC50 (MCF-7) of over 100 µM and an IC50 (MOLT-4) of over 100 µM. The IC50 (NCI-H292) was over 100 µM, the IC50 [1] was over 100 µM and the “antiproliferative activity against the tested cell lines” value [2] was “inactive”. For the same molecule, the melting point was 202 to 204 °C.

For `COc1cccc2c1C(=O)c1c(O)c3c(c(O)c1C2=O)C[C@@](O)(C(=O)CO)C[C@@H]3O[C@H]1C[C@H](N)[C@H](O)[C@H](C)O1` [Doxo, doxorubicin, reference compound], the IC50 (HEp-2) was 1.28 ± 0.11 µM, the IC50 (HL-60) was 0.11 ± 0.01 µM and the IC50 (HT-29) was 0.73 ± 0.09 µM. For the same molecule, the IC50 (K562) was 1.47 ± 0.09 µM, the IC50 (MCF-7) was 0.2 ± 0.03 µM and the IC50 (MOLT-4) was 0.73 ± 0.08 µM. The IC50 (NCI-H292) was 0.18 ± 0.02 µM, the IC50 [1] was 5.33 ± 0.62 µM and the depolarized cells (HL-60 cells [3]) was 41.8%. The “cells in initial apoptosis [Annexin V(+) and 7-AAD(−)]” value (HL-60 cells [4]) was 23.7% and the “cells in late apoptosis [Annexin V(+) and 7-AAD(+)]” value (HL-60 cells [4]) was 19%.
